Experimental data as given in ChEMBL document CHEMBL2429761, “Discovery of ML314, a Brain Penetrant Non-Peptidic β-Arrestin Biased Agonist of the Neurotensin NTR1 Receptor” (ACS Med Chem Lett, 2013).
Values after ≈ are worked out from the molar mass of the structure shown.

How the values were obtained:
[1] = molecular target: T1, 5-hydroxytryptamine receptor 3A (Homo sapiens, UniProt P46098); assay: Binding affinity to 5-HT3 receptor (unknown origin)
T1 sequence (P46098 whole entry): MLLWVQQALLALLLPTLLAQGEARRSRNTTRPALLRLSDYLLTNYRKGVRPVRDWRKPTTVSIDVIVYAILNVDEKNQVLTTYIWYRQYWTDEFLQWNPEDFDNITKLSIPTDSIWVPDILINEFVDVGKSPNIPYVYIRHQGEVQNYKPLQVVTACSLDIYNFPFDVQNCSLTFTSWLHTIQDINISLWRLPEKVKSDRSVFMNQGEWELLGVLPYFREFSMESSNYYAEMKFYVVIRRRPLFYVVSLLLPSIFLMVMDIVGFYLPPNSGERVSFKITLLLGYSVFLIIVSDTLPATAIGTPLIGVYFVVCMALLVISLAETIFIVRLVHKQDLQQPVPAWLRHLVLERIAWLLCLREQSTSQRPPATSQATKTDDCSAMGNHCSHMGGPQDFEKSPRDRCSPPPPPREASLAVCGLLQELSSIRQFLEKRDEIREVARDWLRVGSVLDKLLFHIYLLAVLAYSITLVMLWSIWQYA

Mu-type opioid receptor [2] = molecular target: T2, Mu-type opioid receptor (Homo sapiens, UniProt P35372); assay: Binding affinity to mu opioid receptor (unknown origin) at 10 uM relative to control
T2 sequence (P35372 whole entry): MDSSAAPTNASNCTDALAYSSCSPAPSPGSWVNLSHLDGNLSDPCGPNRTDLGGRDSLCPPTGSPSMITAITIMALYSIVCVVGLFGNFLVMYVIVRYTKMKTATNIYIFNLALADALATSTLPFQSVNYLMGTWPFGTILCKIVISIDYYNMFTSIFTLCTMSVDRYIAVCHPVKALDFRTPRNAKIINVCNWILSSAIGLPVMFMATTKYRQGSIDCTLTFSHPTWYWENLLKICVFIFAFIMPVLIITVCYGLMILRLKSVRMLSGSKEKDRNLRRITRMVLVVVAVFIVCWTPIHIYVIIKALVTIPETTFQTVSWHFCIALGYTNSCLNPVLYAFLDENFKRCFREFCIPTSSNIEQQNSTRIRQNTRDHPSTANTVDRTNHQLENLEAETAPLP

Liver microsomes = assay: Metabolic stability in human liver microsomes assessed as compound remaining at 1 to 10 uM after 1 hr by LC-MS/MS analysis; format: ADME, Microsome
Translocator protein = Translocator protein (Homo sapiens, UniProt P30536); assay: Binding affinity to PBR receptor (unknown origin)
Translocator protein, sequence (P30536 whole entry): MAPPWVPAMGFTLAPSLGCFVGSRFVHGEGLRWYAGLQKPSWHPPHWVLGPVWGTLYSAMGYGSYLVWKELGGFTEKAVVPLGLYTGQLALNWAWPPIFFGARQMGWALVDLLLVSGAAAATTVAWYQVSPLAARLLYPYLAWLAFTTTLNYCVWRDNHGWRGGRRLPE

Plasma [3] = assay: Plasma protein binding in mouse at 10 uM after 4 hrs by LC-MS/MS analysis; format: ADME, cell-free
[4] = Effective permeability of the compound at 50 uM after 30 mins at donor pH 5 and acceptor pH 7.4 by PAMPA; format: ADME; conditions: pH 5, 0.5 h
[5] = molecular target: T3, Neurotensin receptor type 1 (Homo sapiens, UniProt P30989); conditions: U2OS
T3 sequence (P30989 whole entry): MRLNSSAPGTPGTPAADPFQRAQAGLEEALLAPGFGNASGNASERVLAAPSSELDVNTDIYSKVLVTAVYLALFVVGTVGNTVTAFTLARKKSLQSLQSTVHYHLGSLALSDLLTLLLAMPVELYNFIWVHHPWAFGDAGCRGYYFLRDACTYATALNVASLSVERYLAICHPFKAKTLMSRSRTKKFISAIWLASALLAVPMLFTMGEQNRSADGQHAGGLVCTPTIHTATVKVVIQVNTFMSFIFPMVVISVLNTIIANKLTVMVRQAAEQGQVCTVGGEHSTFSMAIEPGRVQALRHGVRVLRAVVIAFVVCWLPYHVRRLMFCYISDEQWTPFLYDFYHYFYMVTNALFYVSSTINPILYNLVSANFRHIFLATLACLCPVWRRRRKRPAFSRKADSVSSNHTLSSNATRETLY
Description: Agonist activity at NTR1 (unknown origin) expressed in human U2OS cells coexpressing beta-arrestin by GFP reporter gene assay

[6] = molecular target: Neurotensin receptor type 2 (Homo sapiens, UniProt O95665); assay: Agonist activity at NTR2 (unknown origin) expressed in human U2OS cells coexpressing beta-arrestin by GFP reporter gene assay; format: cell-based
Neurotensin receptor type 2, sequence (O95665 whole entry): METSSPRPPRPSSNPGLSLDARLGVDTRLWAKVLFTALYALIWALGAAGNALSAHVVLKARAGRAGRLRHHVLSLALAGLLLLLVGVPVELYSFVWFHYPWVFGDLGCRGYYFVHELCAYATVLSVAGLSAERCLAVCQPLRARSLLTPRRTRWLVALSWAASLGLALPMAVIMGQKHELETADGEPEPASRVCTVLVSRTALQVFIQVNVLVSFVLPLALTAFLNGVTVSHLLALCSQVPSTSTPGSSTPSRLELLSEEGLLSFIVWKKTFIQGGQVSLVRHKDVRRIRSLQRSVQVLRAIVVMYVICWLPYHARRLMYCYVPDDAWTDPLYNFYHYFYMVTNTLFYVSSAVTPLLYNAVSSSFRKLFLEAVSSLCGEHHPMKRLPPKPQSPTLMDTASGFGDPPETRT

Hepatitis C virus = assay: Antiviral activity against Hepatitis C virus assessed as growth inhibition; format: functional, Hepacivirus hominis
[7] = Hepatotoxicity in human Fa2N-4 cells after 24 hrs by luminescence assay; format: toxicity, cell-based; conditions: fa2n-4, 24 h, read-out: LC50 (the source's name)
Liver = assay: Metabolic stability in mouse liver microsomes assessed as compound remaining at 1 to 10 uM after 1 hr by LC-MS/MS analysis; format: ADME, Microsome
Mu-type opioid receptor [8] = molecular target: T2, Mu-type opioid receptor; assay: Binding affinity to mu opioid receptor (unknown origin)
[9] = Kinetic solubility of the compound in pION buffer at 250 uM after 18 hrs at pH 7.4; format: physicochemical; conditions: read-out: Kinetic_solubility
[10] = molecular target: T3, Neurotensin receptor type 1; assay: Agonist activity at NTR1 (unknown origin) expressed in CHO cells assessed as stimulation of calcium flux; format: functional, cell-based
[11] = Effective permeability of the compound at 50 uM after 30 mins at donor pH 6.2 and acceptor pH 7.4 by PAMPA; format: ADME; conditions: pH 6.2, 0.5 h
[12] = Drug uptake in C57BL/6J mouse brain at 10 mg/kg, ip after 1 hr by LC-MS/MS analysis; format: ADME, organism-based; set-up: dose 10 mg/kg, route intraperitoneal; conditions: read-out: Drug uptake
[13] = Drug uptake in C57BL/6J mouse brain at 30 mg/kg, ip after 1 hr by LC-MS/MS analysis; format: ADME, organism-based; set-up: dose 30 mg/kg, route intraperitoneal; conditions: read-out: Drug uptake
[14] = test system: Mycobacterium tuberculosis; assay: Antibacterial activity against Mycobacterium tuberculosis H37Rv assessed as growth inhibition; format: functional
[15] = molecular target: T3, Neurotensin receptor type 1; assay: Agonist activity at NTR1 (unknown origin) expressed in CHOK1 cells by beta-arrestin assay relative to neurotensin (8 to 13); format: cell-based; conditions: CHO-K1
[16] = molecular target: 5-hydroxytryptamine receptor 7 (Homo sapiens, UniProt P34969); assay: Binding affinity to 5-HT7 receptor (unknown origin)
5-hydroxytryptamine receptor 7, sequence (P34969 whole entry): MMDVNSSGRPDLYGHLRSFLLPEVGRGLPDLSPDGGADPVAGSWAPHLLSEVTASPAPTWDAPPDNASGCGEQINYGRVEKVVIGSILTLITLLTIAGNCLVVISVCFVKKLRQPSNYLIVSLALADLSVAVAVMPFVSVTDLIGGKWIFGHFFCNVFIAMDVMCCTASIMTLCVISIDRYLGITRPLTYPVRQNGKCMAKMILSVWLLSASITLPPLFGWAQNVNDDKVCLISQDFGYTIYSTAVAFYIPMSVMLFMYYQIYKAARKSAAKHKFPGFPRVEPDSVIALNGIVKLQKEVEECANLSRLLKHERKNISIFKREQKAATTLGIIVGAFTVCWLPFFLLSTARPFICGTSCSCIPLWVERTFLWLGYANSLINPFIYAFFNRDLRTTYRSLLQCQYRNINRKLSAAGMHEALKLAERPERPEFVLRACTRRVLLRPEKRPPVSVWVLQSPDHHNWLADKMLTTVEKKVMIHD

Plasma [17] = assay: Metabolic stability in mouse plasma assessed as compound remaining at 1 uM after 3 hrs by LC-MS/MS analysis; format: ADME, cell-free
[18] = molecular target: T4, Alpha-1A adrenergic receptor (Homo sapiens) (UniProt P35348); assay: Binding affinity to adrenergic alpha1A receptor (unknown origin) at 10 uM relative to control
T4 sequence (whole entry): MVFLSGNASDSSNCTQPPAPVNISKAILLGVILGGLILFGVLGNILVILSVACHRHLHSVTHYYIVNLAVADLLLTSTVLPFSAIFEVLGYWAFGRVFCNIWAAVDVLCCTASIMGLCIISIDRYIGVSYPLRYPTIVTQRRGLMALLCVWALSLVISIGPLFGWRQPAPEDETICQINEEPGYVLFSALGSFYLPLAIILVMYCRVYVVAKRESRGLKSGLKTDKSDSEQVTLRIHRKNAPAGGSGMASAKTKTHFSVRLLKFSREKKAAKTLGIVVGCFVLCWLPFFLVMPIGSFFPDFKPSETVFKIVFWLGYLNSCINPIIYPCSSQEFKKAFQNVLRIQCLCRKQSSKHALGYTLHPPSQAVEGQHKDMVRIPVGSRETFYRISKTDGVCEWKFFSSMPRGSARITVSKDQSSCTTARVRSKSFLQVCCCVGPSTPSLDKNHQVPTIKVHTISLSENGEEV

Histamine H1 receptor = Histamine H1 receptor (Homo sapiens, UniProt P35367); assay: Binding affinity to histamine H1 receptor (unknown origin)
Histamine H1 receptor, sequence (P35367 whole entry): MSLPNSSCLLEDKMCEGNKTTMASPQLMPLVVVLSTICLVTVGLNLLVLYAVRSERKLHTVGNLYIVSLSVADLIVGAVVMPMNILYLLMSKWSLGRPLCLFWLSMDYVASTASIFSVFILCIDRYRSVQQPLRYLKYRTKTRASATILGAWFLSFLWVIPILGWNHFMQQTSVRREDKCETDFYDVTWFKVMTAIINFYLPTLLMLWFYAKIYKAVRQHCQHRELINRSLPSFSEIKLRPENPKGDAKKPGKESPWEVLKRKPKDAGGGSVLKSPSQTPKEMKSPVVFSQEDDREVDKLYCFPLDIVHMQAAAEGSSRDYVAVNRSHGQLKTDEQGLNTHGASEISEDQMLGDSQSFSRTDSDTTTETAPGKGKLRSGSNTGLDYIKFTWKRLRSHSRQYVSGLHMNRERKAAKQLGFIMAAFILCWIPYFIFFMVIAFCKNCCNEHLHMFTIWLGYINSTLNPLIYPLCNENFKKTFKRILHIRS

[19] = Kinetic solubility of the compound in PBS buffer at 250 uM after 18 hrs at pH 7.4; format: physicochemical; conditions: read-out: Kinetic_solubility
Plasma [20] = assay: Plasma protein binding in human at 10 uM after 4 hrs by LC-MS/MS analysis; format: ADME, cell-free
[21] = Kinetic solubility of the compound in pION buffer at 250 uM after 18 hrs at pH 5; format: physicochemical; conditions: read-out: Kinetic_solubility
Mus musculus = assay: Hepatic clearance in C57BL/6J mouse at 2 mg/kg, iv by LC-MS/MS analysis; format: ADME, organism-based, Liver; set-up: dose 2 mg/kg, route intravenous; conditions: in vivo

Which Ki [1] does the source give for `COc1cc2nc(C3CC3)nc(N3CCN(c4ccccc4OC)CC3)c2cc1OC` here?
The Ki was 1 µM.

What about the Activity (Mu-type opioid receptor [2]) of the same compound?
Its Activity is 86%.

And the Stability (Liver microsomes)?
Its Stability is 1.4%.

What about the Ki (Translocator protein) of the same compound?
The Ki was 2.54 µM.

And the PPB (Plasma [3])?
Its PPB is 98.9%.

What about the Peff [4] of the same compound?
The Peff was 1160 ×10⁻⁶ cm/s.

What about the EC100 [5] of the same compound?
The EC100 was 10 µM.

What about the EC50 [6] of the same compound?
Its EC50 is > 80 µM.

And the GI (Hepatitis C virus)?
The GI was 3.16 µM.

What about the CC50 [7] of the same compound?
The CC50 was 29.6 µM.

What about the Stability (Liver) of the same compound?
Its Stability is 0.2%.

And the Ki (Mu-type opioid receptor [8])?
Its Ki is 1.54 µM.

And the solubility kinetic at 18 h, 250 µM [9]?
The solubility kinetic at 18 h, 250 µM was 1.2 µM (≈ 0.505 µg/mL).

What about the EC50 [10] of the same compound?
Its EC50 is > 80 µM.

And the Peff [11]?
Its Peff is 2140 ×10⁻⁶ cm/s.

And the concentration at 1 h [12]?
The concentration at 1 h was 924 ng/mL.

What about the concentration at 1 h [13] of the same compound?
The concentration at 1 h was 1510 ng/mL.

What about the GI [14] of the same compound?
The GI was 3.9 µM.

And the Emax [15]?
The Emax was 86.6%.

And the Ki [16]?
Its Ki is 0.93 µM.

And the Stability (Plasma [17])?
The Stability was 99.6%.

And the Activity [18]?
Its Activity is 63%.

What about the Ki (Histamine H1 receptor) of the same compound?
Its Ki is 1.42 µM.

And the solubility kinetic at 18 h, 250 µM [19]?
The solubility kinetic at 18 h, 250 µM was 1.1 µM (≈ 0.463 µg/mL).

And the PPB (Plasma [20])?
Its PPB is 99.2%.

What about the solubility kinetic at 18 h, 250 µM [21] of the same compound?
Its solubility kinetic at 18 h, 250 µM is > 297 µM.

And the CLH (Mus musculus)?
The CLH was 81 mL/min/kg.
